From paper PMC12389355, “Physiologically Based Pharmacokinetic Modeling to Assess Perpetrator and Victim Cytochrome P450 2C Induction Risk” (Pharmaceutics, 2025)

Legend:
CYP2C8 [1] = test system: CYP2C8; set-up: method as in References column of Tables 3 and 4 ([27]-[44]); conditions: victim drug; References of Tables 3 and 4 ([27]-[44]); cited from earlier work
CYP3A4 = conditions: cited from earlier work; for fm CYP3A4: victim drug, References of Tables 3 and 4 ([27]-[44])
[2] = victim drug after administration with rifampicin; References of Table 4 ([27]-[43]), DIDB; cited from earlier work
CYP2B6 [3] = test: in vitro; conditions: human
CYP2C8 [4] = test: CYP2C8 mRNA induction in HTC model
CYP2C19 [5] = test system: CYP2C19; set-up: method as in PMID 26658225; conditions: PHH spheroids, observed in two of the three donors; cited from earlier work
CYP2C19 [6] = test: CYP2C19 mRNA induction in HTC model
CYP2C19 [7] = test: in vitro; conditions: both, human
CYP2C8 [8] = test: in vitro; conditions: both, human
CYP2B6 [9] = test: CYP2B6 mRNA induction in HTC model
CYP2C8 [10] = test system: CYP2C8; set-up: method as in PMID 29802934; conditions: PHH spheroids; cited from earlier work
CYP2B6 [11] = test system: CYP2B6; set-up: method as in PMID 29802934; conditions: PHH spheroids; cited from earlier work
CYP2B6 [12] = conditions: cited from earlier work
CYP2C9 = conditions: cited from earlier work
Other CYPs = conditions: victim drug; ref [35],[36]; cited from earlier work
CYP1A2 = conditions: cited from earlier work
CYP2C19 [13] = conditions: cited from earlier work

CCc1ccc(CCOc2ccc(CC3SC(=O)NC3=O)cc2)nc1 (centres unmarked) [Pioglitazone, pioglitazone]
fm CYP2C8 (CYP2C8 [1]): 0.56 | fm CYP3A4 (CYP3A4): 0.37 | % AUC Reduction (Clinically Observed) [2]: 56.3%

CCOc1cc(CC(=O)N[C@@H](CC(C)C)c2ccccc2N2CCCCC2)ccc1C(=O)O [Repaglinide, repaglinide]
fm CYP2C8 (CYP2C8 [1]): 0.26 | fm CYP3A4 (CYP3A4): 0.74 | % AUC Reduction (Clinically Observed) [2]: 57.5%

CO[C@H]1/C=C/O[C@@]2(C)Oc3c(C)c(O)c4c(O)c(c(/C=N/N5CCN(C)CC5)c(O)c4c3C2=O)NC(=O)/C(C)=C\C=C\[C@H](C)[C@H](O)[C@@H](C)[C@@H](O)[C@@H](C)[C@H](OC(C)=O)[C@@H]1C [Rifampicin, rifampicin]
EC50 at 96 h (CYP2B6 [3]; both): 399 to 530 nM | EC50 at 96 h (CYP2B6 [3]): 415 nM | EC50 (CYP2C8 [4]; Donor 2): 260 nM | EC50 (CYP2C8 [4]; Donor 3): 307 nM | CYP2C19 induction (CYP2C19 [5]): 8 fold | EC50 (CYP2C19 [6]; Donor 1): 1640 nM | EC50 (CYP2C19 [6]; Donor 2): 803 nM | EC50 (CYP2C19 [6]; Donor 3): 1470 nM | EC50 at 96 h (CYP2C19 [7]): 803 to 1640 nM | EC50 at 96 h (CYP2C8 [8]): 260 to 504 nM | EC50 (CYP2B6 [9]; Donor 2): 530 nM | EC50 (CYP2B6 [9]; Donor 3): 399 nM | induction of CYP2C8 mRNA levels (CYP2C8 [10]): 12 fold | induction of CYP2B6 mRNA levels (CYP2B6 [11]): 9 fold

CC(=O)C[C@@H](c1ccccc1)c1c(O)c2ccccc2oc1=O [S-warfarin]
fm via CYP2B6 (CYP2B6 [12]): 0.12 | fm via CYP3A4 (CYP3A4): 0.05 | fm via CYP2C9 (CYP2C9): 0.64

CCCCNC(=O)NS(=O)(=O)c1ccc(C)cc1 [Tolbutamide, tolbutamide]
% AUC Reduction (Clinically Observed) [2]: 63.5% | fm Other CYPs (Other CYPs): 0.15

CC(=O)CC(c1ccccc1)c1c(O)c2ccccc2oc1=O (centres unmarked) [Warfarin, warfarin]
fm CYP2C9 (CYP2C9; victim drug, References of Tables 3 and 4 ([27]-[44])): 0.64

COC(=O)[C@H](c1ccccc1Cl)N1CCc2sccc2C1 [clopidogrel]
fm via CYP2B6 (CYP2B6 [12]): 0.06 | fm via CYP1A2 (CYP1A2): 0.02 | fm via CYP2C19 (CYP2C19 [13]): 0.19
